Data taken from the supplement of paper PMC10883282.

How the values were obtained:
Assay in all cases: relative viability vs DMSO control (72 h) (fraction); higher = more viable cells
G401 = test system: G401
Method in brief: (§1)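 Plates held 72 h at 37 °C and 5% CO2 contained sarcoma cell lines seeded in 384-well format to reach 80–90% confluence, plus 2.5 µl of serially diluted compound added after 24 h. Source plate concentrations ran from 10 mM to 0.0002 mM, with 0.1% DMSO as vehicle and a 5 µM positive control. Percent growth from ATPLite readings, averaged over up to triplicate wells, gave relative viability. Values were rescaled with 1 as full and 0 as none.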

SK-ES-1 = test system: SK-ES-1
Method in brief: as §1

SW1353 = test system: SW1353
Method in brief: as §1

RD-ES = test system: RD-ES
Method in brief: as §1

SW872 = test system: SW872
Method in brief: as §1

RD = test system: RD
Method in brief: as §1

SK-LMS-1 = test system: SK-LMS-1
Method in brief: as §1

VA-ES-BJ = test system: VA-ES-BJ
Method in brief: as §1

SW684 = test system: SW684
Method in brief: as §1

MES-SA = test system: MES-SA
Method in brief: as §1

KHOS-NP = test system: KHOS-NP
Method in brief: as §1

HT1080 = test system: HT1080
Method in brief: as §1

O=S(=O)(c1cccc2cnccc12)N1CCCNCC1 [Fasudil]
relative viability
Details	0.00051 µM	0.00152 µM	0.00457 µM	0.01372 µM	0.04115 µM	0.1235 µM	0.3704 µM	1.111 µM	3.333 µM	10 µM
G401	0.9413	0.92867	0.943	0.948	0.945	0.975	0.972	0.984	1.01	1
HT1080	1.03	1.03	1.066	1.04	1.03	1.03	1.06	1.06	1.07	1.06
KHOS-NP	1.03	1.04	1.029	1.02	1.01	1.03	1.02	1.05	1.01	1.03
MES-SA	0.955	0.967	0.96	0.967	0.992	0.967	0.994	0.987	0.941	0.895
RD	0.969	0.985	0.952	0.978	0.963	0.956	0.961	0.999	1.05	1.06
RD-ES	0.957	0.9873	0.98	0.979	0.9688	0.98	1.009	1.005	1.01	1
SK-ES-1	0.955	0.964	0.963	0.967	0.996	0.989	1	1.02	1.06	1.04
SK-LMS-1	1.05	1.05	1.036	1.08	1.03	1.06	1.03	1.05	1.01	0.977
SW684	1.02	1.02	0.965	0.945	0.965	0.986	1.02	0.95	0.895	0.761
SW872	0.959	0.979	0.993	0.964	0.958	0.9735	0.966	0.9852	1	0.929
SW1353	1.01	1.048	1.03	1.03	1.0327	1	1.04	1.03	0.97	0.888
VA-ES-BJ	0.961	0.962	0.974	0.984	0.945	0.964	0.981	0.985	0.978	0.95

O=C(Nc1nc2cccc(-c3ccc(CN4CCS(=O)(=O)CC4)cc3)n2n1)C1CC1 [Filgotinib]
Details	relative viability
G401, 0.00017 µM	0.988
G401, 0.00051 µM	1.04
G401, 0.00152 µM	1.027
G401, 0.00457 µM	1.03
G401, 0.01372 µM	1.01
G401, 0.04115 µM	0.995
G401, 0.1235 µM	1.04
G401, 0.3704 µM	1.01
G401, 1.111 µM	1.03
G401, 3.333 µM	1.01
G401, 10 µM	0.911
HT1080, 0.00017 µM	1.11
HT1080, 0.00051 µM	1.127
HT1080, 0.00152 µM	1.066
HT1080, 0.00457 µM	1.06
HT1080, 0.01372 µM	1.08
HT1080, 0.04115 µM	1.1
HT1080, 0.1235 µM	1.08
HT1080, 0.3704 µM	1.12
HT1080, 1.111 µM	1.09
HT1080, 3.333 µM	1.13
HT1080, 10 µM	1.12
KHOS-NP, 0.00017 µM	1.09
KHOS-NP, 0.00051 µM	1.12
KHOS-NP, 0.00152 µM	1.1
KHOS-NP, 0.00457 µM	1.101
KHOS-NP, 0.01372 µM	1.1
KHOS-NP, 0.04115 µM	1.1
KHOS-NP, 0.1235 µM	1.085
KHOS-NP, 0.3704 µM	1.085
KHOS-NP, 1.111 µM	1.08
KHOS-NP, 3.333 µM	1.1
KHOS-NP, 10 µM	1.09
MES-SA, 0.00017 µM	0.977
MES-SA, 0.00051 µM	0.964
MES-SA, 0.00152 µM	0.943
MES-SA, 0.00457 µM	0.965
MES-SA, 0.01372 µM	0.949
MES-SA, 0.04115 µM	0.953
MES-SA, 0.1235 µM	0.957
MES-SA, 0.3704 µM	0.935
MES-SA, 1.111 µM	0.94
MES-SA, 3.333 µM	0.923
MES-SA, 10 µM	0.736
RD, 0.00017 µM	1.02
RD, 0.00051 µM	1.04
RD, 0.00152 µM	1.04
RD, 0.00457 µM	1.1
RD, 0.01372 µM	1.07
RD, 0.04115 µM	1.1
RD, 0.1235 µM	1.07
RD, 0.3704 µM	1.1
RD, 1.111 µM	1.1
RD, 3.333 µM	1.01
RD, 10 µM	0.846
RD-ES, 0.00017 µM	0.932
RD-ES, 0.00051 µM	0.886
RD-ES, 0.00152 µM	0.957
RD-ES, 0.00457 µM	0.946
RD-ES, 0.01372 µM	0.928
RD-ES, 0.04115 µM	0.944
RD-ES, 0.1235 µM	0.949
RD-ES, 0.3704 µM	0.957
RD-ES, 1.111 µM	0.978
RD-ES, 3.333 µM	0.924
RD-ES, 10 µM	0.925
SK-ES-1, 0.00017 µM	1.02
SK-ES-1, 0.00051 µM	1.06
SK-ES-1, 0.00152 µM	1.07
SK-ES-1, 0.00457 µM	1.04
SK-ES-1, 0.01372 µM	1.06
SK-ES-1, 0.04115 µM	1.07
SK-ES-1, 0.1235 µM	1.04
SK-ES-1, 0.3704 µM	1.03
SK-ES-1, 1.111 µM	1
SK-ES-1, 3.333 µM	1.05
SK-ES-1, 10 µM	0.8196
SK-LMS-1, 0.00017 µM	1.06
SK-LMS-1, 0.00051 µM	1.08
SK-LMS-1, 0.00152 µM	1.06
SK-LMS-1, 0.00457 µM	1.06
SK-LMS-1, 0.01372 µM	1.06
SK-LMS-1, 0.04115 µM	1.08
SK-LMS-1, 0.1235 µM	1.05
SK-LMS-1, 0.3704 µM	1.05
SK-LMS-1, 1.111 µM	1.04
SK-LMS-1, 3.333 µM	1.02
SK-LMS-1, 10 µM	0.866
SW684, 0.00017 µM	1.13
SW684, 0.00051 µM	1.19
SW684, 0.00152 µM	1.211
SW684, 0.00457 µM	1.19
SW684, 0.01372 µM	1.16
SW684, 0.04115 µM	1.19
SW684, 0.1235 µM	1.18
SW684, 0.3704 µM	1.19
SW684, 1.111 µM	1.18
SW684, 3.333 µM	1.16
SW684, 10 µM	1.09
SW872, 0.00017 µM	1.07
SW872, 0.00051 µM	1.02
SW872, 0.00152 µM	1.05
SW872, 0.00457 µM	1.03
SW872, 0.01372 µM	1.04
SW872, 0.04115 µM	1.01
SW872, 0.1235 µM	1.02
SW872, 0.3704 µM	1.02
SW872, 1.111 µM	1.03
SW872, 3.333 µM	1.02
SW872, 10 µM	0.933
SW1353, 0.00017 µM	1.06
SW1353, 0.00051 µM	1.09
SW1353, 0.00152 µM	1.05
SW1353, 0.00457 µM	1.01
SW1353, 0.01372 µM	1.04
SW1353, 0.04115 µM	1
SW1353, 0.1235 µM	0.981
SW1353, 0.3704 µM	1.02
SW1353, 1.111 µM	1
SW1353, 3.333 µM	0.985
SW1353, 10 µM	0.968
VA-ES-BJ, 0.00017 µM	1.05
VA-ES-BJ, 0.00051 µM	1.05
VA-ES-BJ, 0.00152 µM	1.05
VA-ES-BJ, 0.00457 µM	1.01
VA-ES-BJ, 0.01372 µM	1.01
VA-ES-BJ, 0.04115 µM	0.997
VA-ES-BJ, 0.1235 µM	1.01
VA-ES-BJ, 0.3704 µM	1.01
VA-ES-BJ, 1.111 µM	0.976
VA-ES-BJ, 3.333 µM	0.954
VA-ES-BJ, 10 µM	0.851
